# Assay results as given in ChEMBL document CHEMBL1201862, “PubChem BioAssay data set” (2004).
#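 How tested: cells in 96-well plates exposed to compound for 48 hours at five concentrations. The concentration for 50% growth inhibition is given as GI50.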 Calls of active or inactive are those of the source. Rule as the data show it: active = GI50 up to about 1.1 µM and inactive = higher.
# How the values were obtained:
# Test in all cases: NCI tumour cell line growth inhibition, 48 h
# HT-29 = system: HT-29
# K562 = system: K562
# EKVX = system: EKVX
# UACC-62 = system: UACC-62
# HCC 2998 = system: HCC 2998
# NCI/ADR-RES = system: NCI/ADR-RES
# OVCAR-3 = system: OVCAR-3
# CCRF-CEM = system: CCRF-CEM
# NCI-H522 = system: NCI-H522
# MCF7 = system: MCF7
# MDA-MB-231 = system: MDA-MB-231
# SN12C = system: SN12C
# LOX IMVI = system: LOX IMVI
# HL-60 = system: HL-60
# HCT-15 = system: HCT-15
# A498 = system: A498
# 786-0 = system: 786-0
# SF-295 = system: SF-295
# SF-268 = system: SF-268
# RPMI-8226 = system: RPMI-8226
Structure (SMILES),GI50 (HT-29),GI50 (K562),GI50 (EKVX),GI50 (UACC-62),GI50 (HCC 2998),GI50 (NCI/ADR-RES),GI50 (OVCAR-3),GI50 (CCRF-CEM),GI50 (NCI-H522),GI50 (MCF7),GI50 (MDA-MB-231),GI50 (SN12C),GI50 (LOX IMVI),GI50 (HL-60),GI50 (HCT-15) [µM],GI50 (A498),GI50 (786-0),GI50 (SF-295),GI50 (SF-268),GI50 (RPMI-8226)
CC(=O)OCC1OC(OC2CC3C(C)(C)C(O)CC[C@]3(C)C3CCC45CC4(CCC5[C@@H](C)CC(O)C(O)C(C)(C)O)[C@]23C)C(O)C(O)C1O (stereo not given in full),> 10 µM (inactive),> 10 µM (inactive),> 10 µM (inactive),> 10 µM (inactive),> 10 µM (inactive),> 10 µM (inactive),> 10 µM (inactive),> 10 µM (inactive),> 10 µM (inactive),> 10 µM (inactive),> 10 µM (inactive),> 10 µM (inactive),> 10 µM (inactive),> 10 µM (inactive),> 10,> 10 µM (inactive),> 10 µM (inactive),> 10 µM (inactive),> 10 µM (inactive),> 10 µM (inactive)
COc1cccc2c(=O)oc(-c3ccccc3C)nc12,39 µM (inactive),39.8 µM (inactive),> 100 µM (inactive),62.1 µM (inactive),35 µM (inactive),29.2 µM (inactive),29 µM (inactive),25.9 µM (inactive),46.9 µM (inactive),33.7 µM (inactive),63.7 µM (inactive),26.5 µM (inactive),18.3 µM (inactive),32 µM (inactive),43.9,> 100 µM (inactive),44.8 µM (inactive),42.6 µM (inactive),43.3 µM (inactive),38.2 µM (inactive)
